# Assay results reported in article PMC12457637, “An aptamer-drug conjugate for promising cancer therapy with comprehensive evaluation from rodents to non-human primates” (Signal Transduction and Targeted Therapy, 2025).
# Starred links: 1 amine or outer side, 2 acyl side, 3 side chain; linkers in the order of their positions; H or OH if unused. Non-standard residues stand in square brackets, D forms with d. Residues, ends and D or L forms follow the SMILES beside them. *: point of attachment. Dolaproine = CO[C@@H]([C@@H]1CCCN1)[C@@H](C)C(=O)O; Hexanoyl(6-maleimido) = O=C1C=CC(=O)N1CCCCCC(=O)*; Dil = CC[C@H](C)[C@H](NC)[C@@H](CC(=O)O)OC; PABC = O=C(OCc1ccc(N[*:1])cc1)[*:2]; X1 = C[C@@H](N*)[C@@H](O)c1ccccc1; Cit = NC(=O)NCCC[C@H](N)C(=O)O; NMeV = CN[C@H](C(=O)O)C(C)C
# What was measured:
# Format in all cases: cell-based
# HT-29 cells = experiment: 72-h cytotoxicity (MTS), HT-29; details: HT-29, 72 h
# Protocol: (§1) Cells were seeded in wells of a 96-well plate (6000 cells/well) and incubated overnight to allow for cell adherence. On the second day, 100 μL complete medium containing VcMMAE and Sgc8c-M (400, 200, 100, 50, 25, 12.5, and 6.25 nM), as well as MMAE (5, 2.5, 1.25, 0.625, 0.3125, 0.15625, and 0.078125 nM), were added to wells of a 96-well plate for an additional 72-h incubation at 37 °C. At the end of incubation, 100 μL of CellTiter 96® Aqueous One Solution Cell Proliferation Assay (MTS, Promega) solution (prepared by mixing 2 mL MTS with 9 mL of complete medium) were added to each well. The plates were then incubated for an additional 1–2 h to allow for the formation of formazan crystals. The absorbance of each well was measured at 490 nm using a Multi-Mode Microplate Reader (TECAN, SPARK) to assess cell viability. Cell viability was calculated as [OD490 (treatment) - OD490 (blank)]/[OD490 (nontreatment) - OD490 (blank)] × 100%.
# OVCAR3 cells = experiment: 72-h cytotoxicity (MTS), OVCAR3; details: OVCAR3, 72 h
# Protocol: as §1
# MIA PaCa-2 cells = experiment: 72-h cytotoxicity (MTS), MIA PaCa-2; details: MIA PaCa-2, 72-h incubation
# Protocol: as §1
smiles,measurement,setting,value
"CC[C@H](C)[C@@H]([C@@H](CC(=O)N1CCC[C@H]1[C@H](OC)[C@@H](C)C(=O)N[C@H](C)[C@@H](O)c1ccccc1)OC)N(C)C(=O)[C@@H](NC(=O)[C@H](C(C)C)N(C)C(=O)OCc1ccc(NC(=O)[C@H](CCCNC(N)=O)NC(=O)[C@@H](NC(=O)CCCCCN2C(=O)C=CC2=O)C(C)C)cc1)C(C)C [VcMMAE, MC-VC-PAB-MMAE] ({Hexanoyl(6-maleimido)}-V[Cit][PABC][NMeV]V[Dil][Dolaproine]-X1)",IC50,HT-29 cells,0.203 µM
same,IC50,OVCAR3 cells,0.105 µM
same,IC50,MIA PaCa-2 cells,0.187 µM
